According to patent US11339163B2, “BRaf inhibitors and use thereof for treatment of cutaneous reactions” (Lutris Pharma Ltd., priority 2017, dated 2022):

Tests used:
[1] = test system: ERK phosphorylation in HEKa cells; experiment: phospho-ERK in HEKa cells following EGFR inhibitors (Western blot); type: cell-based, human
Protocol: Human normal keratinocyte cells HEKa were purchased from Gibco Rhenium and seeded in 10 cm dishes (300,000 cells/dish) and incubated overnight at 37° C., 5% CO2. Next morning, the medium was replaced to a starvation medium for 2 hours and then the cells were treated for 2 additional hours with the test compounds. Post incubation, the cells were lyzed with RIPA and the protein extracts were analyzed by western blot for Phospho-ERK and total ERK. Untreated cells and 0.1% DMSO treated cells were used as negative control. HKGS growth factors was used as a positive control.
Western blot: 7.5 μg of total extract was loaded on 10% acrylamide gel. Following transfer, the membranes were blocked with TBST/5% skimmed milk and then incubated with Mouse anti Phospho-ERK (1:1000 in TBST 5% BSA, ON at 4° C.) and goat anti Mouse HRP (1:10,000 in TBST 5% BSA, 1-hour RT). The membranes were exposed using SuperSignal West Pico Chemiluminescent Substrate.
The HRP was then inactivated by incubating the membranes for 1 hour with 0.5% sodium azide Following washes and ECL exposure in order to ensure absence of signal, the membranes were re-blocked for 15 min with TBST/5% skimmed milk and then incubated with Rabbit anti total ERK2 (1:500 in TBST 5% BSA, ON at 4° C.), goat anti Rabbit HRP (1:5,000 in TBST 5% BSA, 1-hour RT) and finally exposed using the SuperSignal West Pico Chemiluminescent Substrate. The films were scanned and the signal were quantified using ImageJ software. The results were calculated as Phospho-ERK/total ERK.
HKGS was used as a positive control.

[2] = biological target: BRAF (V600E) (Homo sapiens, UniProt P15056, V600E); experiment: BRaf inhibitory activity assay; type: biochemical; details: read-out: Compound IC50 BRAF (V600E)
Protocol: (§1) In this assay, the BRaf inhibitory activity of the compound of formula I, where
(§2) Reactions were carried out at 10 μM ATP.

[3] = biological target: wild-type BRaf (Homo sapiens, UniProt P15056); experiment: BRaf inhibitory activity assay; type: biochemical; details: read-out: Compound IC50 BRAF
Protocol: as §1, §2

[4] = BCOP study (eye irritation)
[5] = test system: Escherichia coli; experiment: In vitro Ames test, reverse mutation assay; type: cell-based
[6] = biological target: NEK2(h) (Homo sapiens, UniProt P51955); experiment: KinaseProfiler kinase selectivity assay; type: biochemical
Protocol: (§3) All compounds were prepared to 50× final assay concentration in 100% DMSO. This working stock of the compound was added to the assay well as the first component in the reaction, followed by the remaining components. In the standard KinaseProfiler™ service, there is no pre-incubation step between the compound and the kinase prior to initiation of the reaction. The positive control wells contain all components of the reaction, except the compound of interest; however, DMSO (at a final concentration of 2%) is included in these wells to control for solvent effects. The blank wells contain all components of the reaction, with a reference inhibitor replacing the compound of interest. This abolishes kinase activity and establishes the base-line (0% kinase activity remaining).

[7] = biological target: PI3 Kinase (p120γ)(h) (Homo sapiens, UniProt P48736); experiment: KinaseProfiler kinase selectivity assay; type: biochemical
Protocol: as §3

[8] = biological target: MST1(h) (Homo sapiens, UniProt Q13043); experiment: KinaseProfiler kinase selectivity assay; type: biochemical
Protocol: as §3

[9] = biological target: CDK2/cyclinA(h) (Homo sapiens, UniProt P24941); experiment: KinaseProfiler kinase selectivity assay; type: biochemical
Protocol: as §3

[10] = biological target: Pim-1(h) (Homo sapiens, UniProt P11309); experiment: KinaseProfiler kinase selectivity assay; type: biochemical
Protocol: as §3

[11] = biological target: GSK3β(h) (Homo sapiens, UniProt P49841); experiment: KinaseProfiler kinase selectivity assay; type: biochemical
Protocol: as §3

[12] = biological target: c-RAF(h) (Homo sapiens, UniProt P04049); experiment: KinaseProfiler kinase selectivity assay; type: biochemical
Protocol: as §3

[13] = biological target: ROCK-I(h) (Homo sapiens, UniProt Q13464); experiment: KinaseProfiler kinase selectivity assay; type: biochemical
Protocol: as §3

[14] = biological target: IKKα(h) (Homo sapiens, UniProt O15111); experiment: KinaseProfiler kinase selectivity assay; type: biochemical
Protocol: as §3

[15] = biological target: LOK(h) (Homo sapiens, UniProt O94804); experiment: KinaseProfiler kinase selectivity assay; type: biochemical
Protocol: as §3

[16] = biological target: MLK1(h) (Homo sapiens, UniProt P80192); experiment: KinaseProfiler kinase selectivity assay; type: biochemical
Protocol: as §3

Chain of MLK1(h) (P80192 whole entry): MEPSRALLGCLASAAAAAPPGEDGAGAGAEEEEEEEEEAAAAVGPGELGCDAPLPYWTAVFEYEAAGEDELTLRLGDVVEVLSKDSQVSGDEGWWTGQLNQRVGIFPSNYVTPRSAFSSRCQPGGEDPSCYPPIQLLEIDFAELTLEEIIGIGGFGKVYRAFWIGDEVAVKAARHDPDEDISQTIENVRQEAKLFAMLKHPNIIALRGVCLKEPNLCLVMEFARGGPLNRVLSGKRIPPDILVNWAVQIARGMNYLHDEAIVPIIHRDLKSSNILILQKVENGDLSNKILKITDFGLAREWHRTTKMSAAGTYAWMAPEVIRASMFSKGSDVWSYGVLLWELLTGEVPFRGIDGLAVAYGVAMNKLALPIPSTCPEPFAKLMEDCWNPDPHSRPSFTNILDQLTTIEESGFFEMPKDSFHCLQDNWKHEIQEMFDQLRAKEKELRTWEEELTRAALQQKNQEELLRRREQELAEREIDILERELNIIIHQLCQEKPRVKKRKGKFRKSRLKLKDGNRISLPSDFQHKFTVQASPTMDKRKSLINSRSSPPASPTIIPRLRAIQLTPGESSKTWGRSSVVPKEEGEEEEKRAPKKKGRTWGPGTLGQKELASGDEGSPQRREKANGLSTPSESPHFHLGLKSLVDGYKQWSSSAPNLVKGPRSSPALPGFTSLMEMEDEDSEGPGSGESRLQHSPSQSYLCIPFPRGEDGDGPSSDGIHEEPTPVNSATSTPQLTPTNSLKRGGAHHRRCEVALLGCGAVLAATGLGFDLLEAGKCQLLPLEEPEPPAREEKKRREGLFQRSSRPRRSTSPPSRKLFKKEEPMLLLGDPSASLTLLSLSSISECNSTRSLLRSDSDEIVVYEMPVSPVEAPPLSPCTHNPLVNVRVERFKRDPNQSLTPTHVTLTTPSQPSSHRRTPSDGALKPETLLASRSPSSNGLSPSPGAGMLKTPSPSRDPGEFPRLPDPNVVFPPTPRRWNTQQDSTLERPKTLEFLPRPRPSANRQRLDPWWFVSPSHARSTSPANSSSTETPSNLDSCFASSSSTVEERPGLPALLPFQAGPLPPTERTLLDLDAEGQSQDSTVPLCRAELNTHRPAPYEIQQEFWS
Chain of c-RAF(h) (P04049 whole entry): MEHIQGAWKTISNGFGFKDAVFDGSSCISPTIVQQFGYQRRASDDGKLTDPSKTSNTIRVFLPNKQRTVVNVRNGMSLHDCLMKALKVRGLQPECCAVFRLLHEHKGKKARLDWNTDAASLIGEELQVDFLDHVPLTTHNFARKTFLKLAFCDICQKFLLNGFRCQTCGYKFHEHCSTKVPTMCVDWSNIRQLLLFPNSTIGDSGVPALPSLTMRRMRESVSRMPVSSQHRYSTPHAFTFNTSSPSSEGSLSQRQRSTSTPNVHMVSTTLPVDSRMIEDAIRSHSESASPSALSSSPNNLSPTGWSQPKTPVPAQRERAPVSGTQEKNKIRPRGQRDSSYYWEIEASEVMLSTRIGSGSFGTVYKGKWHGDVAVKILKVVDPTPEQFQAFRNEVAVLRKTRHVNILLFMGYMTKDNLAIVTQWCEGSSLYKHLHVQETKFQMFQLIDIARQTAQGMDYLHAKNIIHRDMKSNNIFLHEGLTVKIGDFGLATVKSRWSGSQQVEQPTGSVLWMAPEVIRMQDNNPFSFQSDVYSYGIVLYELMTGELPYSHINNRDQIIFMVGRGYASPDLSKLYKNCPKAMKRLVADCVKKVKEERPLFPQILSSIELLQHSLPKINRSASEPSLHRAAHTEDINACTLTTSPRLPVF
Chain of Pim-1(h) (P11309 whole entry): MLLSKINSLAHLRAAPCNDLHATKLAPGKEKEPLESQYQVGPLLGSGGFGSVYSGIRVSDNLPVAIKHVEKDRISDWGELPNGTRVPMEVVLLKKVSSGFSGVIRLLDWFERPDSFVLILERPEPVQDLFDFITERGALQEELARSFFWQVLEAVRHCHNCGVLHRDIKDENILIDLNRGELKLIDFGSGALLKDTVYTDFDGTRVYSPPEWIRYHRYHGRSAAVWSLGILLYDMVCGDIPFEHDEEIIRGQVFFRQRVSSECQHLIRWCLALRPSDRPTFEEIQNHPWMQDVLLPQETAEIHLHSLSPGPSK
Chain of GSK3β(h) (P49841 whole entry): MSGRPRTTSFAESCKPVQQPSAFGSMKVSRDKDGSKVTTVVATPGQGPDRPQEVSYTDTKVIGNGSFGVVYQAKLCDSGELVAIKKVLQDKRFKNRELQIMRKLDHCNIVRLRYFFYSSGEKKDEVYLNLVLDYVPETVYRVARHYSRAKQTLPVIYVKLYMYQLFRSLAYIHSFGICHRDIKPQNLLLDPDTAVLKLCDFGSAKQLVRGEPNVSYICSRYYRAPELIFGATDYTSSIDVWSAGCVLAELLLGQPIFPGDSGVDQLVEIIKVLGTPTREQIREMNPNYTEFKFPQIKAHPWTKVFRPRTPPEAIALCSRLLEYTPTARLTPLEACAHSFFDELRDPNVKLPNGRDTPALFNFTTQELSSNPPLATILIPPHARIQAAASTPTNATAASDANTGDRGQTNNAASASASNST
Chain of IKKα(h) (O15111 whole entry): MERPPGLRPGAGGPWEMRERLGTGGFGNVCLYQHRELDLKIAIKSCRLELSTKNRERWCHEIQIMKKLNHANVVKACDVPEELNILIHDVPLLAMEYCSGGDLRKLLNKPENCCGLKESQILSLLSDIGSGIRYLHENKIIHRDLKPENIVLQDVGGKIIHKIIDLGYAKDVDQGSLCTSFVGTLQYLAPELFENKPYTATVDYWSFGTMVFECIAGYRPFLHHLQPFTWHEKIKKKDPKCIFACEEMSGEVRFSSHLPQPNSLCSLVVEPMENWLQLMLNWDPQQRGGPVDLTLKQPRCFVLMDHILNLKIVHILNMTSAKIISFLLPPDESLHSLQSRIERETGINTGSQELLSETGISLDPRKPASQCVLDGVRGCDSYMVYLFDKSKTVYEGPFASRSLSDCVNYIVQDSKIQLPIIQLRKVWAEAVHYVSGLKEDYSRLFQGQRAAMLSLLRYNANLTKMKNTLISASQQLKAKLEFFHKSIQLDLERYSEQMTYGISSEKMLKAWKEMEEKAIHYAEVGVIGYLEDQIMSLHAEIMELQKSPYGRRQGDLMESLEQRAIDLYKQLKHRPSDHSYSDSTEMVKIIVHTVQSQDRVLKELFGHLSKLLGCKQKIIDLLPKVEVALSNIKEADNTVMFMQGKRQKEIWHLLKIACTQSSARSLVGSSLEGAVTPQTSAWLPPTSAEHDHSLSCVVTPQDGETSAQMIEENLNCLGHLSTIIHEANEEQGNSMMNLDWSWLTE
Chain of LOK(h) (O94804 whole entry): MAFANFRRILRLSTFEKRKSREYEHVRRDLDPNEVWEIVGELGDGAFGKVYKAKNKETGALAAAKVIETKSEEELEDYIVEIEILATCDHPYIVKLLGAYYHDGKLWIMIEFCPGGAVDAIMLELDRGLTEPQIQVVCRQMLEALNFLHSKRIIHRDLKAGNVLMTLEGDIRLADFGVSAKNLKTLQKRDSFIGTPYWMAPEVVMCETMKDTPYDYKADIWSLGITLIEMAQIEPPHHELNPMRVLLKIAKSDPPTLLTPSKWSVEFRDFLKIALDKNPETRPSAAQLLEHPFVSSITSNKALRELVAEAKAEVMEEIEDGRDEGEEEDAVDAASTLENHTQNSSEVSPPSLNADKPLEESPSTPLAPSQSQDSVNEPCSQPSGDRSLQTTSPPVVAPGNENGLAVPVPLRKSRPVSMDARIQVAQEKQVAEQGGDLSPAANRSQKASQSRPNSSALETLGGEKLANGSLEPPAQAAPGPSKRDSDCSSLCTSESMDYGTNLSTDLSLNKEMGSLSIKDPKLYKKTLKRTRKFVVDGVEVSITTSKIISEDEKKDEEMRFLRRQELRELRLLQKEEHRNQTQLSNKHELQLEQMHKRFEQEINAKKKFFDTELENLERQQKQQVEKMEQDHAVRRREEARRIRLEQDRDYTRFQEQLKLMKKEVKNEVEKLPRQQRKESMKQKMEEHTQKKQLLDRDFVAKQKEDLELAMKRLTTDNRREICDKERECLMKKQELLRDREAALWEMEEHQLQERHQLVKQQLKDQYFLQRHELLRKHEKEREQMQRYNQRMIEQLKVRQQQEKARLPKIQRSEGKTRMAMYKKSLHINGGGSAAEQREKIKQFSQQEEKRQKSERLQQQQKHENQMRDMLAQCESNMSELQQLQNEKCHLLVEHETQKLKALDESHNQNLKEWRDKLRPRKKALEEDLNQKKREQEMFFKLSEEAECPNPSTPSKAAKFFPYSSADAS
Chain of NEK2(h) (P51955 whole entry): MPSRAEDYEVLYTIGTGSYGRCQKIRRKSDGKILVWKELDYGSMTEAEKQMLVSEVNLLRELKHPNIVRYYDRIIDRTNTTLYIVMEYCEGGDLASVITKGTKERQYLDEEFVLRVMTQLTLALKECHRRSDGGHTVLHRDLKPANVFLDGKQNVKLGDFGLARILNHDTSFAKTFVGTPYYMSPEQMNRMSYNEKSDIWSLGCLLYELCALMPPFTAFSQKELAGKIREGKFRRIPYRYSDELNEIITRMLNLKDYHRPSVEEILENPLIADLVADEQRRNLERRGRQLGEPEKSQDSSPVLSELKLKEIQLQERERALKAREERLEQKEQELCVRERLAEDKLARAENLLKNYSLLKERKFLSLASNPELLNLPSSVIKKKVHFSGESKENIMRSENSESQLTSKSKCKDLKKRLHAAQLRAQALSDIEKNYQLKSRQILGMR

SMILES: Cc1ccc2c(Nc3cccc(OC(F)(F)F)c3)nccc2c1Nc1ncccc1-c1ncnc2[nH]cnc12 [LUT014]
- increase of phospho-ERK compared to the DMSO treated cells [1]: 200-800%
- phospho-ERK when added to cells treated with Erlotinib [1]: increased
- phospho-ERK when added to cells treated with cetuximab [1]: increased
- IC50 [2]: 0.0133 µM
- IC50 [3]: 0.0117 µM
- IVIS [4]: ≤ 3
- classification for eye irritation or serious eye damage [4]: no classification is required
- mutagenicity, Escherichia coli reverse mutation assay [5]: not mutagenic
- remaining activity at 0.01 µM ([6]; Lut014 @ 0.01 μM): 98%
- remaining activity at 1 µM ([6]; Lut014 @ 1 μM): 125%
- remaining activity at 0.01 µM ([7]; Lut014 @ 0.01 μM): 96%
- remaining activity at 1 µM ([7]; Lut014 @ 1 μM): 83%
- remaining activity at 0.01 µM ([8]; Lut014 @ 0.01 μM): 98%
- remaining activity at 1 µM ([8]; Lut014 @ 1 μM): 112%
- remaining activity at 0.01 µM ([9]; Lut014 @ 0.01 μM): 106%
- remaining activity at 1 µM ([9]; Lut014 @ 1 μM): 95%
- remaining activity at 0.01 µM ([10]; Lut014 @ 0.01 μM): 96%
- remaining activity at 1 µM ([10]; Lut014 @ 1 μM): 89%
- remaining activity at 0.01 µM ([11]; Lut014 @ 0.01 μM): 105%
- remaining activity at 1 µM ([11]; Lut014 @ 1 μM): 98%
- remaining activity at 0.01 µM ([12]; Lut014 @ 0.01 μM): 105%
- remaining activity at 1 µM ([12]; Lut014 @ 1 μM): 30%
- remaining activity at 0.01 µM ([13]; Lut014 @ 0.01 μM): 107%
- remaining activity at 1 µM ([13]; Lut014 @ 1 μM): 107%
- remaining activity at 0.01 µM ([14]; Lut014 @ 0.01 μM): 105%
- remaining activity at 1 µM ([14]; Lut014 @ 1 μM): 105%
- remaining activity at 0.01 µM ([15]; Lut014 @ 0.01 μM): 98%
- remaining activity at 1 µM ([15]; Lut014 @ 1 μM): 83%
- remaining activity at 0.01 µM ([16]; Lut014 @ 0.01 μM): 109%
- remaining activity at 1 µM ([16]; Lut014 @ 1 μM): 112%
